Reference: patent publication US9526785B2, “Pharmaceuticals for oral delivery” (Enteris BioPharma, Inc., priority 2013, dated 2016)
Like-named read-outs stand apart in the source and are kept apart here.

Assay: Tigecycline plasma PK and % F after intraduodenal (ID) injection in anesthetized rats
Type: in vivo, Sprague-Dawley Rats
Settings: female, Sprague-Dawley, rat, plasma
Protocol: Animals weighed approximately 250 g at the time of testing. Rats were fasted overnight (with water available), prior to dosing.
Intravenous (IV) doses were administered as a bolus injection into the left carotid […] at a dose volume of 1.6 mL/kg. Intraduodenal doses were administered as bolus injections into the duodenum at a dose volume of 1.2 mL/kg.
An additional study was conducted exploring the effect of formulation pH at constant CA and LLC concentrations (RA867).
Female rats were maintained in groups of 3 per polycarbonate (or equivalent) shoebox cage with fresh wood chip bedding at 20-22° C. under a 12 hour on/off light:dark cycle. […] After the rats went limp they were injected intraperitoneally (IP) with 0.1 mL ketamine/xylazine. The anesthetic state was maintained by IP injection of ketamine/xylazine on an as needed basis. Animal weights were determined post-anesthesia induction.
An indwelling catheter for blood sampling was inserted into the right carotid artery by exposing the trachea with Mayo scissors, clamping the bottom of the […] and tying off the top with surgical suture. The area between was nicked with small sharp scissors and Intramedic polyethylene tubing was inserted into the nicked area. The artery with the tubing was sealed with suture to prevent leakage. A 23-gauge Intramedic Luer Stub Adapter was inserted into the cannula and attached to a 3 way valve which was connected to a 3 cc syringe filled with 0.9% normal saline and a 1 cc syringe filled with 5 U/mL sodium heparin for blood sampling.
An intraduodenal injection was utilized to mimic oral delivery of an enterically coated capsule or tablet formulation. […] Mayo scissors were used to expose the duodenum and the site of administration was identified by measuring 5 cm from the junction of the stomach and the duodenum towards the jejunum. The measured site was identified by inserting a small piece of surgical suture underneath the site for injection. After the formulation was injected, the abdominal cavity was closed with surgical clips.
Blood samples were collected in tubes containing 20 μL 180 mM EDTA. The tubes were maintained on ice and then centrifuged at approximately 3000 rpm at 4° C. for 5 minutes. Plasma was harvested immediately after centrifugation of the samples and stored at −20° C. pending analysis.
Minocycline (VWR international) was used as an internal standard. Sample processing/clean-up of plasma samples was carried out offline by protein precipitation with acidified acetonitrile.
The HPLC system consisted of Shimadzu SIL-HTc HPLC system equipped with dual Shimadzu LC-10ADvp isopumps, a Shimadzu CTO-10ASvp column temperature controller and a Shimadzu SPD-10Avp variable wavelength detector. […] Mobile phase A consisted of 23 mM phosphate buffer pH 2.5 with 6 mM 1-octanesulfonic acid, while mobile phase B consisting of pure acetonitrile. […] The mobile phase flow rate was 1.2 mL/min. Detection was performed using the SPD-10Avp variable wavelength detector set at 350 nm, with a sensitivity of 0.001 aufs.
The samples were then centrifuged under refrigeration at 13 k rpm for 30 minutes. The supernatant was taken and the liquid was removed to dryness in a turbovap. The samples were then reconstituted in 55 μL 0.1M phosphate buffer, pH 3.8. Samples were maintained at 10° C. while on the autoinjector during sequence. The injection volume was 50 μL. The unknown concentration in rat plasma samples was determined by interpolation of the peak area ratios of analyte:internal standard versus the ratio of their nominal concentrations into the regression line obtained from calibration standards spiked in pooled rat plasma. No regression weighting was used for the calculations. […] The calibration curve covered the range of 0.05 μg/mL to 5.0 μg/mL.

[1] = […], RA869, ID, 400 mM CA/26 mM LLC
[2] = other: intraduodenal bolus injection, 4.8 mg/kg, ID, PBS, 4.8 mg/kg (RA851)
[3] = other: intraduodenal bolus injection, 4.8 mg/kg, pH 3.5, ID, 100 mM CA (pH 3.5), 26 mM LLC, 4.8 mg/kg (RA851)
[4] = other: intraduodenal bolus injection, 4.8 mg/kg, pH 3.5, ID, 400 mM CA (pH 3.5), 26 mM LLC, 4.8 mg/kg (RA851), parent Tigecycline peak only
[5] = other: intraduodenal bolus injection, 9 mg/kg, ID, PBS, 9.0 mg/kg (RA853), animal RA853-4 only
[6] = other: intraduodenal bolus injection, 9 mg/kg, pH 3.5, ID, 100 mM CA (pH 3.5), 26 mM LLC, 9.0 mg/kg (RA853)
[7] = other: intraduodenal bolus injection, 9 mg/kg, pH 3.5, ID, 400 mM CA (pH 3.5), 26 mM LLC, 9.0 mg/kg (RA853), parent Tigecycline peak only

CN(C)c1cc(NC(=O)CNC(C)(C)C)c(O)c2c1C[C@H]1C[C@H]3[C@H](N(C)C)C(O)=C(C(N)=O)C(=O)[C@@]3(O)C(O)=C1C2=O [Tigecycline]
Cmax ([…], RA869, ID, 26 mM LLC only, […], read-out: Cmax, mean): 105 ng/mL
AUC(0-t) [1]: 222 ng·h/mL
Tmax [1]: 15 min
bioavailability ([…], RA869, ID, 400 mM CA/26 mM LLC, […], read-out: % F, mean): 21.6%
Cmax ([…], RA869, ID, 400 mM CA/26 mM LLC, […], read-out: Cmax, mean): 246 ng/mL
concentration at 0 min [2]: 0 ng/mL
concentration at 10 min [2]: 31 ng/mL
concentration at 20 min [2]: 31 ng/mL
concentration at 30 min [2]: 33 ng/mL
concentration at 60 min [2]: 0 ng/mL
concentration at 120 min [2]: 53 ng/mL
concentration at 240 min [2]: 66 ng/mL
concentration at 0 min [3]: 0 ng/mL
concentration at 10 min [3]: 710 ng/mL
concentration at 20 min [3]: 672 ng/mL
concentration at 30 min [3]: 601 ng/mL
concentration at 60 min [3]: 398 ng/mL
concentration at 120 min [3]: 306 ng/mL
concentration at 0 min [4]: 0 ng/mL
concentration at 10 min [4]: 920 ng/mL
concentration at 20 min [4]: 788 ng/mL
concentration at 30 min [4]: 618 ng/mL
concentration at 60 min [4]: 455 ng/mL
concentration at 120 min [4]: 345 ng/mL
concentration at 240 min [4]: 386 ng/mL
concentration at 0 min [5]: 0 ng/mL
concentration at 10 min [5]: 0 ng/mL
concentration at 20 min [5]: 0 ng/mL
concentration at 30 min [5]: 391 ng/mL
concentration at 60 min [5]: 440 ng/mL
concentration at 120 min [5]: 129 ng/mL
concentration at 0 min [6]: 0 ng/mL
concentration at 10 min [6]: 1770 ng/mL
concentration at 20 min [6]: 1980 ng/mL
concentration at 30 min [6]: 1350 ng/mL
concentration at 60 min [6]: 608 ng/mL
concentration at 120 min [6]: 273 ng/mL
concentration at 0 min [7]: 0 ng/mL
concentration at 10 min [7]: 2490 ng/mL
concentration at 20 min [7]: 2160 ng/mL
concentration at 30 min [7]: 1760 ng/mL
concentration at 60 min [7]: 1060 ng/mL
concentration at 120 min [7]: 683 ng/mL
bioavailability (other: intraduodenal bolus injection, pH 3.5, ID, 400 mM CA pH 3.5 and 26 mM LLC (RA851, RA853), read-out: absolute % F): ~22%
bioavailability (other: intraduodenal injection, 4.8 mg/kg, ID, PBS, 4.8 mg/kg (RA851), relative to 0.64 mg/kg IV, read-out: % F, Mean): 1.6%
bioavailability (other: intraduodenal injection, 4.8 mg/kg, pH 3.5, ID, 100 mM CA (pH 3.5), 26 mM LLC, 4.8 mg/kg (RA851), relative to 0.64 mg/kg IV, read-out: % F, Mean): 10.9%
bioavailability (other: intraduodenal injection, 9 mg/kg, ID, PBS, 9.0 mg/kg (RA853), without animal RA853-6, relative to 12 mg/kg IV, read-out: % F, Mean): 2.8%
Cmax (other: intraduodenal injection, 9 mg/kg, ID, PBS, 9.0 mg/kg (RA853), suspected injection site leakage, read-out: Cmax, one animal not included in the mean): 1110 ng/mL
bioavailability (other: intraduodenal injection, 9 mg/kg, pH 3.5, ID, 100 mM CA (pH 3.5), 26 mM LLC, 9.0 mg/kg (RA853), relative to 12 mg/kg IV, read-out: % F, Mean): 11.4%
bioavailability (other: intraduodenal injection, 9 mg/kg, pH 3.5, ID, 400 mM CA (pH 3.5), 26 mM LLC, 9.0 mg/kg (RA853), parent Tigecycline peak only, relative to 12 mg/kg IV, read-out: % F, Mean): 21.8%
bioavailability (other: intraduodenal injection, […], RA869, ID, 26 mM LLC only, […], read-out: % F, mean): 9%
bioavailability (other: intraduodenal injection, […], RA869, ID, 400 mM CA/26 mM LLC, […], read-out: % F, mean): ~22%
bioavailability (other: intraduodenal injection, pH 3.5, ID, 100 mM CA pH 3.5 and 26 mM LLC (RA851, RA853), read-out: absolute % F): ~11%
